Measurements taken from US20050037436A1, “Test systems and the use thereof for identifying and characterizing compounds” (priority 2000, published 2005).

How the values were obtained:
[1] = target: T1, human muscarinic M1 acetylcholine receptor (Homo sapiens, UniProt P11229); format: cell-based; settings: 400 ng/ml BAY44-4400
T1 construct: The full-length cDNA of a human muscarinic receptor 1 (huM1Rez); expressed in transfected cells; host or cells: HEK-293, transient (pEGFP-N3)
T1 sequence (P11229 1-460): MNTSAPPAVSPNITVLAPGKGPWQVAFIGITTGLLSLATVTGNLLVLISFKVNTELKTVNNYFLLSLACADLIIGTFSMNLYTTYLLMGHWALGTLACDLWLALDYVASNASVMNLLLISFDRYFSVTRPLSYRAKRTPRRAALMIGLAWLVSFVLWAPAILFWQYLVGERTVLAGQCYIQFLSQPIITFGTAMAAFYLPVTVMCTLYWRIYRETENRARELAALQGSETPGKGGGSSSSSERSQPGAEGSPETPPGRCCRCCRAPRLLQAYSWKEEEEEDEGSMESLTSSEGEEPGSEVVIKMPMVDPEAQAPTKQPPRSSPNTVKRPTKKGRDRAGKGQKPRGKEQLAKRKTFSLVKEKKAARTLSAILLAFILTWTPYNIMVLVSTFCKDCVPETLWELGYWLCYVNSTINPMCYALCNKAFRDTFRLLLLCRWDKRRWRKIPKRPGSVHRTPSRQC

[2] = target: T2, mouse β2-adrenergic receptor (Mus musculus, UniProt P18762); test: Ca2+ imaging of HEK-293 cells transfected with β2-R-GFP (control); format: cell-based; settings: BAY 44-4400 present
T2 construct: was fused with a C-terminal EGFP tag by amplifying the full-length cDNA with the P117 mouse 2AR XhoI 5′ primer; expressed in transfected cells; host or cells: HEK-293, transient (pEGFP-N3)
Experimental: The intracellular free Ca^2+ concentration [Ca^2+]i was measured in COS-7 and HEK293 cells transiently transfected with the HC110-R-EGFP or β2-AR-EGFP construct using the calcium imaging method (see also FIG. 11). In each case 2×10^5 COS-7 and HEK293 cells were applied to a 42 mm cover glass coated with 1% gelatine in 55 mm tissue culture dishes with 5 ml of DMEM medium (with 10% FCS and pen/strep). The transfection took place with the aid of the non-liposomal transfection reagent FuGENE 6 (Roche Molecular Biochemicals, Mannheim). […] Constructs of the HC110-R full-length clone with a GFP tag fused in the correct reading frame, and the complete cDNA of the β2-adrenergic receptor which had likewise been provided with a GFP tag at the 3′ end, were transfected.
After the incubation, the cells loaded with Fura-2/AM were examined under an inverted microscope (Zeiss, Axiovert, Germany) and, in parallel with this, in a digital imaging fluorescence microscope (PTI) and differentiated into transfected and untransfected cells at a wavelength of 440 and 490 nm respectively. On average, 5-7 transfected and non transfected cells were selected by fixing an ROI (region of interest). The extinction was measured at 340 nm (calcium-bound Fura-2/AM) and 380 nm (free Fura-2/AM), and the emission was measured at 510 nm. Evaluation took place using the Image Master 1.x software by forming the quotient of 340:510 nm, 380:510 nm and the ratio of 340/380:510 nm (background corrected images) as a function of the agent added.
Agents were always added 6 min after starting the measurement by removing an appropriate volume of Na^+ HBS buffer and pipetting the agent directly into the sample vessel for a further 30 to 50 min. The total volume in the sample vessel was constant at 1.5 ml throughout the experiment. […] Addition of CdCl2 and nifedipine took place immediately at the start of the experiment and before addition of α-LTX, and EGTA was added both at the start of the experiment and 4 min after the addition of α-LTX. […]
The data were analyzed using the Excel 98 table calculation programme. […]

T2 sequence (P18762 whole entry, the tested form may be a part): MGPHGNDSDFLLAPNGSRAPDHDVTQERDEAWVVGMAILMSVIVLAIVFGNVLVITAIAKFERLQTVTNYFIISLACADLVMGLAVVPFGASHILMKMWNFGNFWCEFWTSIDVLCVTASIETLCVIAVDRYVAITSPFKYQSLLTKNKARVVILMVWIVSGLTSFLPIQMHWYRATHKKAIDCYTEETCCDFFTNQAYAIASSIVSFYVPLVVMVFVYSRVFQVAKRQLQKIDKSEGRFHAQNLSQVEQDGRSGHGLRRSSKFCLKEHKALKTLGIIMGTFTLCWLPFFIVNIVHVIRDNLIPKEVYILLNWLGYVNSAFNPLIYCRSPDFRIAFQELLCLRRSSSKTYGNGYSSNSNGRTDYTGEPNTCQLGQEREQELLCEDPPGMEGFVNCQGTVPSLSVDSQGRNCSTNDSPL

CC(C)C[C@H]1C(=O)O[C@H](Cc2ccc(N3CCOCC3)cc2)C(=O)N(C)[C@@H](CC(C)C)C(=O)O[C@H](C)C(=O)N(C)[C@@H](CC(C)C)C(=O)O[C@H](Cc2ccc(N3CCOCC3)cc2)C(=O)N(C)[C@@H](CC(C)C)C(=O)O[C@H](C)C(=O)N1C [BAY44-4400, cyclo(-D-Lac-L-MeLeu-D-p-morpholinyl-PhLac-L-MeLeu-)]
carbachol-induced increase in [Ca2+]i in presence of BAY44-4400 [1]: 89 ± 5.5 nM | effect on isoproterenol-induced Ca2+ increase [2]: does not interfere with the isoproterenol-induced signal transmission | effect on isoproterenol-induced Ca2+ increase ([2]; listed as BAY 44-4400): unaffected by BAY 44-4400
